{
  "source": "paper PMC10986179",
  "about": "“PCC0208057 as a small molecule inhibitor of TRPC6 in the treatment of prostate cancer” (Frontiers in Pharmacology, 2024)",
  "molecular_target": "T1, TRPC6 (transient receptor potential canonical 6) (Homo sapiens, UniProt Q9Y210)",
  "T1 sequence (Q9Y210 1-931)": "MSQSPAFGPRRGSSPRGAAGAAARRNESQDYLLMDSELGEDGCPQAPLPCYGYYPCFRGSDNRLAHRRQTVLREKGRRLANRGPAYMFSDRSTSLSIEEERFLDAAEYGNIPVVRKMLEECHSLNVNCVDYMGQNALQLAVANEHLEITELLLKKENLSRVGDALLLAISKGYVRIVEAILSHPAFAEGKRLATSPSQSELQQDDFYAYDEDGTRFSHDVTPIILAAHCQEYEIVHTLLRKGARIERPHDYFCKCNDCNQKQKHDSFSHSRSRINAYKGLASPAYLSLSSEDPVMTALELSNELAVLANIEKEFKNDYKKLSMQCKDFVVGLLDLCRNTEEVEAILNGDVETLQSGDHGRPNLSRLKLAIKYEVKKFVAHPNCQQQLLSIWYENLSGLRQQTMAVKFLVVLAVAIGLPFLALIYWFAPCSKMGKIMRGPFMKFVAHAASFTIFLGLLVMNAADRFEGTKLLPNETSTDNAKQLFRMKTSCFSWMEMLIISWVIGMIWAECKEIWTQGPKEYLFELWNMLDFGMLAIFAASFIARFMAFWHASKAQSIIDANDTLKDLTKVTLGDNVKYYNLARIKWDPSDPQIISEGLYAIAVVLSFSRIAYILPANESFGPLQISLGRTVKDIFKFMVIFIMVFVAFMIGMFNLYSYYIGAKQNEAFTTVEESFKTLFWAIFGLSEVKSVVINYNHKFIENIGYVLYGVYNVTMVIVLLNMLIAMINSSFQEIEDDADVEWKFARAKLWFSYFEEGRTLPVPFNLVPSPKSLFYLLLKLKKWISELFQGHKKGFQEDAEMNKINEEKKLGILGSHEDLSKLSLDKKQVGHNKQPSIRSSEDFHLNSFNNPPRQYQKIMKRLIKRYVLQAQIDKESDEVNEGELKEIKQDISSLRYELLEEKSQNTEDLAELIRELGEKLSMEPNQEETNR",
  "test": "Fluo-4 Ca2+ assay in TRPC6-HEK293 cells; also electrophysiology of GSK1702934A-evoked TRPC6 currents",
  "type": "cell-based",
  "data": [
    {"smiles": "COc1cccc2sc(N(CCN3CCCC3)C(=O)c3ccc4c(c3)OCO4)nc12", "note": "[PCC0208057]", "values": [
      {"measurement": "IC50", "value": 2440, "unit": "nM"}
    ]}
  ]
}
